Like-named read-outs stand apart in the source and are kept apart here.
Columns and labels:
[1] = tested on: Plutella xylostella (Diamond Back Moth); experiment: Example B14: comparison with state of the art, Plutella xylostella, larvicide, feeding/residual contact, preventive; format: in vivo
Method: Plutella xylostella (Diamond Back Moth)
(Larvicide, Feeding/Residual Contact Activity, Preventive)
24-well microtiter plate (MTP) with artificial diet is treated with test solutions by pipetting. After drying, the MTP's are infested with larvae (L2)(10-15 per well). After an incubation period of 5 days, samples are checked for larval mortality, antifeedant and growth regulation.

[2] = tested on: Heliothis virescens; experiment: Example B15: comparison with state of the art, Heliothis virescens ovo-larvicide test; format: in vivo; conditions: for inhibition at 0.8 ppm / inhibition at 3.1 ppm / inhibition at 12.5 ppm / inhibition at 50 ppm: Heliothis virescens, 96 h, read-out: Ovo-larvicidal activity (%) after 4 days
Method: Activity Against Heliothis virescens (Ovo-Larvicide Test)
(§1) Eggs (0-24 h old) are placed in 24-well microtiter plate on artificial diet and treated with test solutions by pipetting. After an incubation period of 4 days, samples are checked for egg mortality, larval mortality, and growth regulation.

[3] = tested on: Aphis craccivora (Pea Aphid); experiment: Example B11: activity against Aphis craccivora, mixed population, systemic/feeding; format: in vivo; conditions: 144 h, 6 days, roots in test solution (systemic)
From the text: (§2) Activity Against Aphis craccivora (Pea Aphid)
(§3) (Mixed Population, Systemic/Feeding)
(§4) 6 days later, samples are checked for mortality.

[4] = tested on: Plutella xylostella (Diamond Back Moth); experiment: Example B3: Plutella xylostella, larvicide, feeding/residual contact, preventive (artificial diet MTP); format: in vivo; conditions: 120 h, 5 days incubation, L2 larvae
Procedure, shortened: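 Artificial diet in multiwell plates treated with test solution, dried, then infested with 10–15 L2 larvae per well. After 5 days, larval mortality, antifeedant effect and growth regulation were scored.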

[5] = tested on: Myzus persicae (Green Peach Aphid); experiment: Example B6: activity against Myzus persicae, mixed population, systemic/feeding, curative (pea seedling roots); conditions: 144 h, read-out: activity
[6] = tested on: Aphis craccivora (Pea Aphid); experiment: Example B10: activity against Aphis craccivora, mixed population, contact/feeding; format: in vivo; conditions: 144 h, 6 days after treatment, spray (contact/feeding)
From the text: as §2
(Mixed Population, Contact/Feeding)
6 days after treatment, samples are checked for mortality.

[7] = tested on: Frankliniella occidentalis (Western Flower Thrips); experiment: Example B9: activity against Frankliniella occidentalis (bean leaf discs or bean plants); format: in vivo; conditions: foliar, 6 days (leaf discs) or 14 days (plants) after infestation
Procedure, shortened: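 Bean leaf discs on agar or whole bean plants sprayed with diluted test solutions, then infested with a mixed thrips population after drying. Population reduction versus untreated assessed 6 days (discs) or 14 days (plants) after infestation.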

[8] = tested on: Spodoptera littoralis (Egyptian Cotton Leafworm); experiment: Example B1: activity against Spodoptera littoralis, larvicide, feeding/residual contact, preventive (cotton leaf discs); format: in vivo; conditions: foliar, 72 h, 3 days after treatment, L1 larvae
[9] = tested on: Myzus persicae (Green Peach Aphid); experiment: Example B5: activity against Myzus persicae, mixed population, feeding/residual contact, preventive (sunflower leaf discs); conditions: foliar, 144 h, read-out: activity
[10] = tested on: Diabrotica balteata (Corn Root Worm); experiment: Example B4: Diabrotica balteata, larvicide, feeding/residual contact, preventive; format: in vivo; conditions: 120 h, 5 days incubation, L2 larvae
Procedure, shortened: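 Artificial diet treated with test solution, dried, then infested with 6-10 L2 larvae per well. Larval mortality, antifeedant effect and growth regulation checked after 5 days of incubation.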

[11] = tested on: Heliothis virescens (Tobacco Budworm); experiment: Example B2: activity against Heliothis virescens, ovo-larvicide, feeding/contact, curative; format: in vivo; conditions: 96 h, 4 days incubation, eggs 0-24 h old
Method: Activity Against Heliothis virescens (Tobacco Budworm)
(Ovo-Larvicide, Feeding/Contact Activity, Curative)
as §1

[12] = tested on: Cydia pomonella (Codling Moth); experiment: Example B8: activity against Cydia pomonella (paraffin-coated diet cubes); format: in vivo; conditions: 336 h, 14 days incubation at 26° C.
Method: Activity Against Cydia pomonella (Codling Moth)
Standard Cydia diet cubes (1.5 cm width) are pierced with a tooth-pick and are immersed in liquid paraffin (ca. 80° C.). After the paraffin coat has hardened, an aqueous emulsion containing 400 ppm of active ingredient is applied using a De Vilbis sprayer (25 ml, 1 bar). After the spray coating has dried, the cubes are put into plastic containers which are then populated with two freshly hatched Cydia pomonella (1st instar). The containers are then closed with a plastic cap. After 14 days incubation at 26° C. and 40-60% relative humidity, the survival rate of the caterpillars as well as their growth regulation is determined. In this test, compounds listed in Table P above show good activity. In particular compounds P.10, P.11, P.12, P.18, P.19, P.20, P.29, P.30, P.31, P.32, P.33, P.34, P.35, P.37, P.38, P.39, P.42, and P.43 show an activity of over 80% at a concentration of 400 ppm.

[13] = tested on: Aphis aossypii (Cotton Aphid); experiment: Example B13: activity against cotton aphid, mixed population, systemic/feeding; format: in vivo; conditions: 144 h, 6 days, roots in test solution (systemic)
From the text: Activity Against Aphis aossypii (Cotton Aphid)
as §3, §4

[14] = tested on: Thrips tabaci (Onion Thrips); experiment: Example B7: activity against Thrips tabaci, mixed population, feeding/residual contact, preventive; conditions: 144 h, read-out: activity
[15] = especially at 12.5, 3.1 and 0.8 ppm

SMILES | melting point | pest or weed control at 400 ppm [3] | pest or weed control at 400 ppm [4] | pest or weed control at 400 ppm [5] | pest or weed control at 400 ppm [6] | pest or weed control at 400 ppm [7] | pest or weed control at 400 ppm [8] | pest or weed control at 400 ppm [9] | pest or weed control at 400 ppm [10] | pest or weed control at 400 ppm [11] | pest or weed control at 400 ppm [13] | other results
C#Cc1cc2cn[nH]c2c(C(=O)NC(C)C)c1NC(=O)c1cc(C(F)(F)F)nn1-c1ncccc1Cl [Example 34, 6-{[2-(3-chloro-pyridin-2-yl)-5-trifluoromethyl-2H-pyrazole-3-carbonyl]-amino}-5-ethynyl-1H-indazole-7-carboxylic acid isopropylamide] | 226 to 229 °C |  |  |  |  |  |  |  |  |  |  | 
Cc1nc2ccccc2c(C(=O)NC(C)C)c1NC(=O)c1cc(C(F)(F)F)nn1-c1ncccc1Cl [Compound T81.3, reference compound] |  |  |  |  |  |  |  |  |  |  |  | Death rate (%) after 5 days ([1]; 0.8 ppm): 0%; Death rate (%) after 5 days ([1]; 3.1 ppm): 0%; Death rate (%) after 5 days ([1]; 12.5 ppm): 60%; Death rate (%) after 5 days ([1]; 50 ppm): 100%; inhibition at 0.8 ppm [2]: 0%; inhibition at 3.1 ppm [2]: 25%; inhibition at 12.5 ppm [2]: 65%; inhibition at 50 ppm [2]: 80%
C#Cc1cc2cn[nH]c2c(C(=O)NC(C)C)c1NC(=O)c1cc(C(F)F)nn1-c1ncccc1Cl [P.80] | 233 to 236 °C |  |  |  |  |  |  |  |  |  |  | 
CNC(=O)c1c(NC(=O)c2cc(C(F)(F)F)nn2-c2ncccc2Cl)ccc2ncccc12 [Example 46, 6-{[2-(3-chloro-pyridin-2-yl)-5-trifluoromethyl-2H-pyrazole-3-carbonyl]-amino}-quinoline-5-carboxylic acid methylamide] | 210 to 211 °C |  |  |  |  |  |  |  |  |  |  | 
CCNC(=O)c1c(NC(=O)c2cc(C(F)(F)F)nn2-c2ncccc2Cl)c(Cl)cc2cn[nH]c12 [P.30] |  | > 80% | > 80% | > 80% | > 80% | > 80% | > 80% | > 80% | > 80% | > 80% | > 80% | pest or weed control at 400 ppm [12]: > 80%
Cc1cc2ncccc2c(C(=O)NC(C)C)c1NC(=O)c1cc(C(F)(F)F)nn1-c1ncccc1Cl [P.78, 6-{[2-(3-chloro-pyridin-2-yl)-5-trifluoromethyl-2H-pyrazole-3-carbonyl]-amino}-7-methyl-quinoline-5-carboxylic acid isopropylamide] |  |  | > 80% |  |  |  |  |  | > 80% | > 80% |  | Death rate (%) after 5 days ([1]; 0.8 ppm): 50%; Death rate (%) after 5 days ([1]; 3.1 ppm): 100%; Death rate (%) after 5 days ([1]; 12.5 ppm): 100%; Death rate (%) after 5 days ([1]; 50 ppm): 100%; insecticidal action compared with the compound from the state of the art (T81.3) [1, 15]: substantially better insecticidal action; inhibition at 0.8 ppm ([2]; 0.8 ppm): 50%; inhibition at 3.1 ppm ([2]; 3.1 ppm): 50%; inhibition at 12.5 ppm ([2]; 12.5 ppm): 80%; inhibition at 50 ppm ([2]; 50 ppm): 80%; insecticidal action compared with the compound from the state of the art (T81.3) [2, 15]: substantially better insecticidal action
CC(C)NC(=O)c1c(NC(=O)c2cc(Cl)nn2-c2ncccc2Cl)c(Cl)cc2cn[nH]c12 [P.43] |  | > 80% | > 80% | > 80% | > 80% | > 80% | > 80% | > 80% | > 80% | > 80% | > 80% | pest or weed control at 400 ppm [14]: > 80%; pest or weed control at 400 ppm [12]: > 80%
COc1cc(C(=O)Nc2c(C)cc3cn[nH]c3c2C(=O)NC(C)C)n(-c2ncccc2Cl)n1 [P.27, 6-{[2-(3-chloro-pyridin-2-yl)-5-methoxy-2H-pyrazole-3-carbonyl]-amino}-5-methyl-1H-indazole-7-carboxylic acid isopropylamide] |  | > 80% | > 80% | > 80% | > 80% | > 80% | > 80% | > 80% | > 80% | > 80% | > 80% | pest or weed control at 400 ppm [14]: > 80%
CC(C)NC(=O)c1c(NC(=O)c2cc(C(F)(F)F)nn2-c2ncccc2Cl)ccc2cccnc12 [P.73, 7-{[2-(3-chloro-pyridin-2-yl)-5-trifluoromethyl-2H-pyrazole-3-carbonyl]-amino}-quinoline-8-carboxylic acid isopropylamide] | 225 to 226 °C |  |  |  |  |  |  |  |  |  |  | 
Cc1cc2cn[nH]c2c(C(=O)NC2(C3CC3)CC2)c1NC(=O)c1cc(C(F)F)nn1-c1ncccc1Cl | 224 to 227 °C |  |  |  |  |  |  |  |  |  |  | 
C#Cc1cc2cn[nH]c2c(C(=O)NC2(C3CC3)CC2)c1NC(=O)c1cc(C(F)F)nn1-c1ncccc1Cl [P.81] | 218 to 221 °C |  |  |  |  |  |  |  |  |  |  | 
CC(C)NC(=O)c1c(NC(=O)c2cc(Br)nn2-c2ncccc2Cl)c(Cl)cc2cn[nH]c12 [P.42] |  | > 80% | > 80% | > 80% | > 80% | > 80% | > 80% | > 80% | > 80% | > 80% | > 80% | pest or weed control at 400 ppm [14]: > 80%; pest or weed control at 400 ppm [12]: > 80%
